From PMC6522510 (Nature Communications, 2019)
Like-named read-outs stand apart in the source and are kept apart here.

Key:
Experiment in all cases: Secondary dose-response HTS, Cell Titer Glo; call rule not given here
Type in all cases: cell-based, human
MOLM-13 = details: MOLM-13
MV4-11 = details: MV4-11
CHRF288-11 = tested on: CHRF288-11
CMK = details: CMK
CMS = tested on: CMS
M07e = tested on: M07e
ML2 = details: ML-2
U937 = tested on: U937
[1] = secondary high-throughput screen
[2] = secondary high-throughput screen, CHRF288-11
[3] = secondary high-throughput screen, CMS
[4] = secondary high-throughput screen, M07e
[5] = secondary high-throughput screen, U937
[6] = secondary high-throughput screen, read-out: average effective concentration, MOLM-13
[7] = secondary high-throughput screen, read-out: average effective concentration, MV4-11
[8] = secondary high-throughput screen, CHRF288-11, read-out: average effective concentration, CHRF288-11
[9] = secondary high-throughput screen, CMS, read-out: average effective concentration, CMS
[10] = secondary high-throughput screen, M07e, read-out: average effective concentration, M07e
[11] = secondary high-throughput screen, read-out: average effective concentration, ML-2
[12] = secondary high-throughput screen, U937, read-out: average effective concentration, U937
[13] = Homo sapiens, secondary high-throughput screen, read-out: average effective concentration, MOLM-13
[14] = Homo sapiens, secondary high-throughput screen, read-out: average effective concentration, MV4-11
[15] = Homo sapiens, HTS, secondary high-throughput screen, CHRF288-11, read-out: average effective concentration, CHRF288-11
[16] = Homo sapiens, secondary high-throughput screen, read-out: average effective concentration, CMK
[17] = Homo sapiens, HTS, secondary high-throughput screen, CMS, read-out: average effective concentration, CMS
[18] = Homo sapiens, M-07e, secondary high-throughput screen, M07e, read-out: average effective concentration, M07e
[19] = Homo sapiens, secondary high-throughput screen, read-out: average effective concentration, ML-2
[20] = Homo sapiens, U-937, secondary high-throughput screen, U937, read-out: average effective concentration, U937
[21] = secondary high-throughput screen, […]
[22] = secondary high-throughput screen, read-out: average effective concentration, CMK

Molecule | average effective concentration, MOLM-13 (MOLM-13; [1]) | average effective concentration, MV4-11 (MV4-11; [1]) | average effective concentration, CHRF288-11 (CHRF288-11; [2]) | average effective concentration, CMK (CMK; [1]) | average effective concentration, CMS (CMS; [3]) | average effective concentration, M07e (M07e; [4]) | average effective concentration, ML-2 (ML2; [1]) | average effective concentration, U937 (U937; [5]) | EC50 (M07e; [10]) | further results
O=C(O)c1ccnc(C(=O)O)c1 [2,4-PDAC] | Inactive | Inactive | Inactive | Inactive | Inactive | Inactive | Inactive | Inactive |  | 
CC(C)(CCc1ccccc1)C(=O)Nc1ccc(C(=O)NO)cc1 [OSU-HDAC-44] |  |  |  | Inactive |  |  |  |  | 0.35 µM | EC50 (MOLM-13; [6]): 1.3 µM; EC50 (MV4-11; [7]): 0.29 µM; EC50 (CHRF288-11; [8]): 1.5 µM; EC50 (CMS; [9]): 0.48 µM; EC50 (ML2; [11]): 1.4 µM; EC50 (U937; [12]): 0.49 µM
Nc1[nH]nc2nnc(-c3c(-c4ccccc4)nn4ccccc34)cc12 [FR 180204] | Inactive | Inactive | Inactive | Inactive | Inactive | Inactive | Inactive | Inactive |  | 
CC[C@]1(O)C[C@H]2CN(CCc3c([nH]c4ccccc34)[C@@](C(=O)OC)(c3cc4c(cc3OC)N(C=O)[C@H]3[C@@](O)(C(=O)OC)[C@H](OC(C)=O)[C@]5(CC)C=CCN6CC[C@]43[C@@H]65)C2)C1 [VINCRISTINE] |  |  |  |  |  |  |  |  |  | EC50 (MOLM-13; [13]): 0.043 µM; EC50 (MV4-11; [14]): 0.02 µM; EC50 (CHRF288-11; [15]): 0.39 µM; EC50 (CMK; [16]): > 10 µM; EC50 (CMS; [17]): 0.23 µM; EC50 (M07e; [18]): 0.001 µM; EC50 (ML2; [19]): 0.008 µM; EC50 (U937; [20]): 0.035 µM
Nc1nc2nc[nH]c2c(=S)[nH]1 [THIOGUANINE] |  |  |  |  |  |  |  |  |  | EC50 (MOLM-13; [13]): 4.9 µM; EC50 (MV4-11; [14]): 3 µM; EC50 (CHRF288-11; [15]): 3.5 µM; EC50 (CMK; [16]): 3.8 µM; EC50 (CMS; [17]): > 10 µM; EC50 (M07e; [18]): > 10 µM; EC50 (ML2; [19]): 6.3 µM; EC50 (U937; [20]): > 10 µM
C[N+](C)(C)[C@@H](Cc1c[nH]c(=S)[nH]1)C(=O)[O-] [L-(+)-ERGOTHIONEINE] | Inactive | Inactive | Inactive | Inactive | Inactive |  | Inactive | Inactive | 3.2 µM | 
COC[C@H](NC(=O)c1cnc(C)s1)C(=O)N[C@@H](COC)C(=O)N[C@@H](Cc1ccccc1)C(=O)[C@@]1(C)CO1 [Oprozomib, reference compound] |  |  |  |  |  |  |  |  |  | EC50 (MOLM-13; Homo sapiens, secondary HTS, 72 h, average of triplicate, read-out: EC50 MOLM-13): 0.01 µM; EC50 (MV4-11; Homo sapiens, secondary HTS, 72 h, average of triplicate, read-out: EC50 MV4-11): 0.01 µM; EC50 (CHRF288-11; [15]): 0.025 µM; EC50 (CHRF288-11; Homo sapiens, secondary HTS, 72 h, average of triplicate, read-out: EC50 CHRF288-11): 0.03 µM; EC50 (CMK; Homo sapiens, secondary HTS, 72 h, average of triplicate, read-out: EC50 CMK): 0.01 µM; EC50 (CMK; [16]): 0.0076 µM; EC50 (CMS; Homo sapiens, secondary HTS, 72 h, average of triplicate, read-out: EC50 CMS): 0.001 µM; EC50 (M07e; Homo sapiens, M-07e, secondary HTS, 72 h, average of triplicate, read-out: EC50 M07e): 0.01 µM; EC50 (ML2; Homo sapiens, secondary HTS, 72 h, average of triplicate, read-out: EC50 ML2): 0.01 µM; EC50 (ML2; [19]): 0.005 µM; EC50 (U937; Homo sapiens, U-937, secondary HTS, 72 h, average of triplicate, read-out: EC50 U937): 0.01 µM; EC50 (U937; [20]): 0.011 µM
CCn1c(=O)c(-c2cc[nH]n2)cc2c(C)nc(N)nc21 [Voxtalisib] | Inactive | Inactive | Inactive | Inactive | Inactive | Inactive | Inactive | Inactive |  | 
CCCCCCCCCCCCCCCc1cccc(OCC)c1C(=O)Nc1ccc(Cl)c(C(F)(F)F)c1 [CTPB] |  | Inactive | Inactive | Inactive | Inactive | Inactive | Inactive | Inactive |  | EC50 (MOLM-13; [6]): 0.9 µM
SCR7 | Inactive | Inactive | Inactive | Inactive | Inactive | Inactive | Inactive | Inactive |  | 
CN1CCc2c(c3ccccc3n2Cc2ccc(C(=O)NO)cc2)C1 [[…]] |  | Inactive | Inactive | Inactive | Inactive |  | Inactive | Inactive |  | EC50 (MOLM-13; [13]): > 10 µM; average effective concentration, M07e (M07e; [21]): Inactive
O=C1NC(=O)/C(=C/c2cccc(C(F)(F)F)c2)S1 [SMI-4A] | Inactive | Inactive | Inactive | Inactive | Inactive | Inactive | Inactive | Inactive |  | 
O=C1c2ccccc2-c2nc3nnnn3nc21.O=C1c2ccccc2-c2nn3nnnc3nc21 [KP-372-1] | Inactive | Inactive |  |  |  |  |  |  | 0.053 µM | EC50 (CHRF288-11; [8]): 0.038 µM; EC50 (CMK; [22]): 0.024 µM; EC50 (CMS; [9]): 0.031 µM; EC50 (ML2; [11]): 0.006 µM; EC50 (U937; [12]): 0.01 µM
1-NA-PP1 [Compound 1-NA-PP1] | Inactive | Inactive | Inactive |  | Inactive |  | Inactive | Inactive |  | EC50 (CMK; [22]): 2.2 µM; average effective concentration, M07e (M07e; [21]): Inactive
SN-38 |  |  |  |  | Inactive |  |  |  | 0.044 µM | EC50 (MOLM-13; [6]): 0.0056 µM; EC50 (MV4-11; [7]): 0.24 µM; EC50 (CHRF288-11; [8]): 0.00949 µM; EC50 (CMK; [22]): 0.023 µM; EC50 (ML2; [11]): 0.00251 µM; EC50 (U937; [12]): 0.037 µM
(-)-NUTLIN-3 |  | Inactive | Inactive | Inactive | Inactive |  |  | Inactive | 0.16 µM | EC50 (MOLM-13; [6]): 0.94 µM; EC50 (ML2; [11]): 4.9 µM
